Laboratory results taken from the supplement of paper PMC10307832.

Experiments:
Experiment in all cases: relative viability (nuclei count vs DMSO), 5 days (fraction); higher = more cells survive
Axitinib + Foretinib = compound: CNC(=O)c1ccccc1Sc1ccc2c(/C=C/c3ccccn3)n[nH]c2c1 [Axitinib] + COc1cc2c(Oc3ccc(NC(=O)C4(C(=O)Nc5ccc(F)cc5)CC4)cc3F)ccnc2cc1OCCCN1CCOCC1 [Foretinib] (partner 0.25 µM)
Procedure, shortened: (§1)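 Lung cancer cell lines in 1536-well plates got either a single drug or a fixed anchor-drug dose together with five library-drug doses (not always all listed) in √10 steps, by pin tool, on the day after seeding. Nuclei were counted after 5 days, and relative viability is the treated-to-vehicle ratio of nuclei counts. Values are medians of duplicate plates.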

Axitinib + Bortezomib = compound: CNC(=O)c1ccccc1Sc1ccc2c(/C=C/c3ccccn3)n[nH]c2c1 [Axitinib] + CC(C)C[C@H](NC(=O)[C@H](Cc1ccccc1)NC(=O)c1cnccn1)B(O)O [Bortezomib] (partner 0.002 µM)
Procedure, shortened: as §1

[1] = compound: CC1=CC=C(C=C1)C(=O)CN2C3=C(CCCC3)SC2=N [Pifithrin_alpha] + CC(=O)c1c(C)c2cnc(Nc3ccc(N4CCNCC4)cn3)nc2n(C2CCCC2)c1=O [Palbociclib] (partner 0.5 µM)
Procedure, shortened: as §1

Axitinib + Lapatinib = compound: CNC(=O)c1ccccc1Sc1ccc2c(/C=C/c3ccccn3)n[nH]c2c1 [Axitinib] + CS(=O)(=O)CCNCc1ccc(-c2ccc3ncnc(Nc4ccc(OCc5cccc(F)c5)c(Cl)c4)c3c2)o1 [Lapatinib] (partner 2 µM)
Procedure, shortened: as §1

Cell Line	relative viability (Axitinib + Foretinib; first compound 0.005 µM)	relative viability (Axitinib + Foretinib; first compound 0.01581 µM)	relative viability (Axitinib + Foretinib; first compound 0.05 µM)	relative viability (Axitinib + Foretinib; first compound 0.1581 µM)	relative viability (Axitinib + Foretinib; first compound 0.5 µM)	relative viability (Axitinib + Bortezomib; first compound 0.005 µM)	relative viability (Axitinib + Bortezomib; first compound 0.01581 µM)	relative viability (Axitinib + Bortezomib; first compound 0.05 µM)	relative viability (Axitinib + Bortezomib; first compound 0.1581 µM)	relative viability (Axitinib + Bortezomib; first compound 0.5 µM)	relative viability ([1]; first compound 1 µM)	relative viability ([1]; first compound 3.162 µM)	relative viability ([1]; first compound 10 µM)	relative viability ([1]; first compound 31.62 µM)	relative viability ([1]; first compound 100 µM)	relative viability (Axitinib + Lapatinib; first compound 0.005 µM)	relative viability (Axitinib + Lapatinib; first compound 0.01581 µM)	relative viability (Axitinib + Lapatinib; first compound 0.05 µM)	relative viability (Axitinib + Lapatinib; first compound 0.1581 µM)	relative viability (Axitinib + Lapatinib; first compound 0.5 µM)
H3255	1.03	0.61	0.848	0.859	0.801	0.672	0.778	0.856	0.962	0.6	0.292	0.304	0.298	0.296	0.304	0.272	0.241	0.244	0.263	0.239
HARA	0.768	0.907	0.945	0.821	0.919	1.09	1.07	1.1	1.13	1.14	0.219	0.266	0.26	0.265	0.226	0.63	0.593	0.718	0.621	0.602
HCC-15	1.1	1.11	0.958	0.99	0.999	1.08	0.995	1.01	0.988	1.06	0.514	0.731	0.765	0.516	0.625	0.884	0.872	0.831	0.836	0.848
HCC-78	0.582	0.536	0.512	0.6	0.548	0.643	0.491	0.305	0.499	0.566	0.449	0.412	0.454	0.409	0.488	0.865	0.724	0.642	0.701	0.47
HCC-366	0.949	0.958	0.865	0.966	0.977	0.977	0.994	1.11	1	1.13	0.33	0.289	0.28		0.258	0.99	0.961	1.09	1.03	1.16
HCC-827	1.06	0.984	1.04	1.01	1.13	1.11	1.06	1.04	1.02	1.15	0.49	0.444	0.479	0.43	0.471	0.209	0.169	0.138	0.186	0.212
HOP-62	1.07	1.14	1.06	1.09	1.3	1.02	0.776	0.668	0.891	1.21	0.45	0.483	0.396	0.335	0.52	0.891	0.883	1.01	0.863	1.06
LC-2-ad	0.871	0.891	0.917	0.761	0.959	1.1	1.06	0.93	1.04	1.16	0.514	0.503	0.51	0.375	0.432	0.935	0.99	1.06	0.985	1.03
LCLC-97TM1	0.847	0.977	0.926	0.896	0.918	0.732	0.419	0.585	0.515	0.736		0.293	0.204		0.225	0.74	1.17	1.01	0.927	0.725
LOU-NH91	0.917	0.659	0.981	0.962	0.957	0.517	0.537	0.43	0.475	0.57	0.471	0.537	0.516	0.491	0.523	0.839	0.789	0.836	0.711	0.705
LU99A	0.901	0.851	0.818	0.894	0.936	1.1	1.09	1.13	1.12	1.12	0.39	0.445	0.387		0.453	0.879	0.987	0.885	1.04	1.04
LXF-289	1.07	0.902	0.913	0.983	1.05	0.977	0.918	0.974	0.974	1	0.591	0.625	0.591	0.529	0.6	0.899	0.831	0.921	0.869	0.888
NCI-H23	1.06	0.948	1.06	0.955	1.02	1.06	1.09	1	1.03	1.02	0.537	0.413	0.445	0.351	0.413	1.22	1.1	1.15	1.01	1.28
NCI-H322M	1.18	0.926	0.922	0.859	1.12	1.34	1.07	1.12	1.2	1.12	0.381	0.56	0.501	0.474	0.525	0.658	0.603	0.591	0.566	0.652
NCI-H460	1.01	0.917	0.974	0.995	1.05	1.09	1.07	0.975	0.96	1.37	0.102	0.102	0.12	0.0866	0.0814	1.15	0.999	0.809	0.953	1.35
NCI-H520	0.808	0.64	0.706		0.829	0.685	0.698	0.474	0.5	0.705	0.203	0.254	0.26	0.205	0.222	0.902	0.778	0.771	0.751	0.785

Cell Line	relative viability (Axitinib + Foretinib; first compound 0.005 µM)	relative viability (Axitinib + Foretinib; first compound 0.01581 µM)	relative viability (Axitinib + Foretinib; first compound 0.05 µM)	relative viability (Axitinib + Foretinib; first compound 0.1581 µM)	relative viability (Axitinib + Foretinib; first compound 0.5 µM)	relative viability (Axitinib + Bortezomib; first compound 0.005 µM)	relative viability (Axitinib + Bortezomib; first compound 0.01581 µM)	relative viability (Axitinib + Bortezomib; first compound 0.05 µM)	relative viability (Axitinib + Bortezomib; first compound 0.1581 µM)	relative viability (Axitinib + Bortezomib; first compound 0.5 µM)	relative viability ([1]; first compound 1 µM)	relative viability ([1]; first compound 3.162 µM)	relative viability ([1]; first compound 10 µM)	relative viability ([1]; first compound 31.62 µM)	relative viability ([1]; first compound 100 µM)	relative viability (Axitinib + Lapatinib; first compound 0.005 µM)	relative viability (Axitinib + Lapatinib; first compound 0.01581 µM)	relative viability (Axitinib + Lapatinib; first compound 0.05 µM)	relative viability (Axitinib + Lapatinib; first compound 0.1581 µM)	relative viability (Axitinib + Lapatinib; first compound 0.5 µM)
NCI-H647	1.26	1.16	1.03	1.23	1.56	1.04	1.1	0.94	1.01	1.08	0.376	0.364	0.353	0.269	0.285	1.07	1.09	1.29	1.09	1.41
NCI-H661	1.06	1.01	1.09	1.04	1.12	0.93	0.83	0.648	0.785	0.842	0.397	0.4	0.36	0.386	0.334	0.608	0.522	0.359	0.481	0.534
NCI-H727	1.23	0.837	0.896	0.982	1.15	1.1	0.854	1	0.868	0.795	0.615	0.678	0.657	0.636	0.667	1.05	0.952	0.71	0.867	0.953
NCI-H838	1.06	1.11	1.12	0.906	1.13	0.961	1.01	0.902	0.726	0.965	0.192	0.189	0.203	0.188	0.183	1.29	0.853	1.11	1.01	1.03
NCI-H1355	1.03	0.945	1.04	0.956	1.1	1.26	1.13	1.32	1.17	1.15	0.376	0.283	0.301	0.249	0.257	0.976	1.08	0.994	1	0.893
NCI-H1437	1.3	1.22	1.28	1.13	1.25	0.515	0.542	0.55	0.446	0.589	0.325	0.326	0.218	0.217	0.172	0.851	0.743	0.91	0.733	0.926
NCI-H1650	1.32	1.12	1.24	1.19	1.31	0.209	0.208	0.191	0.195	0.22	0.285	0.321	0.389	0.307	0.282	0.928	0.532	0.884	0.715	0.818
NCI-H1651	0.879	0.896	0.876	0.878	0.859	0.926	0.942	0.934	0.889	0.857	0.534	0.513	0.513	0.569	0.514	0.89	0.706	0.929	0.713	0.942
NCI-H1666	1	1.03	0.995	1.02	0.935	0.938	0.881	0.97	0.922	0.92	0.642	0.68	0.591	0.612	0.646	0.767	0.741	0.608	0.62	0.946
NCI-H1734	0.928	0.853	0.923	0.944	1.08	0.935	0.974	0.879	1.01	1.06	0.38	0.362	0.33	0.313	0.355	1.03	1.07	1.15	1.02	0.954
NCI-H1755	0.946	0.931	0.788	0.888	0.935	0.973	0.973	0.932	0.971	0.967	0.433	0.437	0.441	0.424	0.443	1.06	0.998	1.06	1.04	0.99
NCI-H1915	1.07	1.11	1.08	1.08	1.13	0.921	0.944	1.05	0.986	0.976	0.532	0.517	0.522		0.452	0.994	0.99	0.994	0.922	1
NCI-H1975	1.05	0.944	0.938	0.997	1.03	0.404	0.357	0.397	0.394	0.463	0.573	0.435	0.32	0.302	0.339	1.02	0.841	0.899	0.871	0.953
NCI-H1993	0.771	0.731	0.823	0.956	0.845	1.21	1.3	1.14	1.18	0.913	0.585	0.542	0.506	0.54	0.46	0.952	0.971	0.841	0.735	0.731
NCI-H2009	1.21	1.23	1.23	1.27	1.08	1.1	1.11	1.04	1.04	1.16	0.194	0.219	0.172	0.128	0.174	0.92	1.05	0.9	1.02	0.9
NCI-H2023	0.906	0.943	0.911	0.923	0.923	0.968	1	1.03	0.834	1.02	0.388	0.327	0.365	0.227	0.184	0.752	0.924	1.03	0.775	0.759
